These results are taken from publication PMC7504215, “Copper(II) Complexes with Mixed Heterocycle Ligands as Promising Antibacterial and Antitumor Species” (Molecules, 2020).

Data set [1] deals with normal BJ cell (human fibroblast). As to the kind of experiment: MTT cell viability assay. It is filed as cell-based. The following applies: any tested concentration (0–25 μg/mL), 24 and 48 h. The method, then:
(§1) The cytotoxicity of ligand and copper(II) complexes was tested on normal BJ cell as well as on B16 (melanoma) tumor cells, which were grown for 48 h in culture medium containing the tested complexes in 0–25 μg/mL concentration range.
(§2) Human fibroblast cells (BJ-ATCC CRL-2522, Manassas, VA, USA) were grown in minimal essential medium (MEM) supplemented with 2 mM L-Glutamine, 10% fetal calf serum (FCS), 100 units/mL of penicillin and 100 µg/mL of streptomycin at 37 °C in a humidified incubator under an atmosphere containing 5% CO2. Mouse melanoma cells (B16-ATCC CRL-6475, Manassas, VA, USA) were grown in DMEM (Dulbecco’s Modified Eagle Medium) supplemented with similar reagents as MEM. All cell cultivation media and reagents were purchased from Biochrom AG (Berlin, Germany) and Sigma-Aldrich (Darmstadt, Germany).
(§3) Cell viability was evaluated using 3-(4,5-dimethylthiazol-2-yl)-2,5-diphenyltetrazolium bromide (MTT) assay, as described previously. First, the cells were seeded in 96-well plates (20,000 cells/well) and cultured for 24 h in medium. After overnight incubation, the medium was changed and the investigated sample in concentration varying from […] was added for 24 h. The negative control was represented by cells cultivated in medium without the investigated compounds. Following incubation, the medium was changed and the MTT solution was added to each well to a final concentration of 1 mg/mL and incubated for additional 4 h, at 37 °C. Finally, the medium was collected and DMSO was used to dissolve the insoluble formazan product. The absorbance of the samples was recorded at 570 nm using a plate reader Mithras 940 (Berthold). The data were corrected for the background and the percentage of viable cells was obtained using the equation:Cell viability = [(A570 of treated cells)/(A570 of untreated cells)] × 100%
(§4) The half-maximal inhibitory concentration (IC50) was determined by fitting the data with a logistical sigmoidal equation using the software Origin 8.1 from Microcal Inc. (Los Angeles, CA, USA).
On the technique in general: Formazan colour is commonly taken as a measure of viable cells.

For data set [2], the system named is S. aureus 25923. The experiment in a line: MIC assay, liquid medium microdilution (planktonic growth). It is filed as cell-based, Staphylococcus aureus. The settings on record: Staphylococcus aureus; S. aureus 25923, 24 h at 37 °C; read-out: MIC. The method, then: (§5) The antibacterial assays were performed on Gram-negative (Escherichia coli ATCC 25922, E. coli 5, Pseudomonas aeruginosa ATCC 27853, P. aeruginosa ATCC 9027) and Gram-positive (Staphylococcus aureus ATCC 25923, S. aureus ATCC 6538, MRSA (Meticillin-resistant S. aureus) 388, ATCC, American Type Culture Collection) bacterial strains. Microbial suspensions (1.5 × 10^8 CFU/mL; colony forming units (CFU)) corresponding to 0.5 McFarland density obtained from 15 to 18-h bacterial cultures developed on solid media were used. The antimicrobial activity was tested on Mueller–Hinton agar medium.
(§6) The quantitative assay of the antimicrobial activity was performed by the liquid medium microdilution method, in 96-well multi-well plates, to establish the minimal inhibitory concentration (MIC). For this purpose, serial two-fold dilutions of the compounds ranging between 1.000 and 1.95 μg/mL were performed in a 200 μL volume of broth and each well was seeded with 50 μL microbial inoculums. Sterility control (wells containing only culture medium) and culture controls (wells containing culture medium seeded with the microbial inoculum) were used. The influence of the DMSO solvent was also quantified in a series of wells containing DMSO, diluted accordingly with the dilution scheme used for the complexes. The plates were incubated for 24 h at 37 °C, and MIC values were considered as the lowest concentration of the tested compound that inhibited the visible growth of the microbial overnight cultures.
In general terms: In broth dilution the organism is exposed to a series of concentrations in liquid medium.

The test system of data set [3] is MRSA. The description is as above. The class given is cell-based, Staphylococcus aureus. The following applies: Staphylococcus aureus, 24 h at 37 °C, read-out: MIC. The method, then: as §5, §6
Data set [4] deals with S. aureus 6538. Described as above. The settings on record: Staphylococcus aureus; S. aureus 6538, 24 h at 37 °C; read-out: MIC. The class given is cell-based, Staphylococcus aureus. As to the method: as §5, §6
Data set [5] is described as follows: Hemolytic activity (adapted ASTM F 756-00). It is filed as cell-based. The following applies: human red blood cells, 4 h at 37 °C, threshold 5% (ASTM F 756-00). As to the method: The hemolytic activity of the compounds was determined using an adapted protocol of ASTM F 756–00 standard based on hemoglobin release from human red blood cells (hRBCs) resulting after cell lyses. Briefly, the blood samples were collected from healthy volunteers, diluted to a concentration of hemoglobin ~10 mg/mL with phosphate buffer saline (PBS) and then incubated with various concentrations of compounds for 4 h at 37 °C. After 4 h, the cells were centrifuged, the supernatant was collected, transferred into 96-well tissue culture plates and mixed with Drabkin reagent, which converts hemoglobin to cyanmethemoglobin (absorption peak at 540 nm). After 15 min, the absorbance of the samples was read at 570 nm using a plate reader. The obtained data was background corrected and used to calculate the hemolytic index as percentage of the hemoglobin released after the treatment with the tested compounds, relative to control samples. The hRBCs in PBS and distilled water were used as negative and positive controls.

The next data set has as its system B16 cells. The experiment in a line: Phalloidin staining and cell imaging (cytoskeleton, nucleus). The following applies: 24 h, 6 μg/mL. It is filed as cell-based, Mouse. As to the method:
(§7) Cytoskeleton actin filaments of BJ and B16 cells were stained with phalloidin-FITC (Sigma-Aldrich, USA) according to the manufacturer’s protocol. Briefly, cells were washed with PBS (5 min, 3 times), fixed for 5 min with 3% paraformaldehyde, washed three times with PBS, permeabilized with 0.1% Triton X-100 in PBS for 15 min, washed three times with PBS, stained with 20 μg mL^−1 phalloidin-FITC at room temperature for 1 h and washed again three times with PBS. Cell nucleus was stained with 8 μM of Hoechst 33342 solution for 10 min, washed three times with PBS and finally, mounted and sealed on glass slides with FluorSave™ Reagent (Merck Millipore, Germany). The fluorescence images were acquired using an Andor DSD2 Confocal Unit (Andor, Ireland), mounted on an epifluorescence microscope, Olympus BX-51 (Olympus, Germany), equipped with a 40x and 100x objective and an appropriate DAPI/Hoechst filter cube (excitation filter 390/40 m, dichroic mirror 405 nm and emission filter 452/45 nm) and GFP/FITC filter cube (excitation filter 466/40 nm, dichroic mirror 488 nm and emission filter 525/54 nm).

In data set [6] the test system is E. coli 25922. The experiment in a line: MBEC assay, micro-titer method (biofilm). The class given is cell-based, Escherichia coli. The method, then:
as §5
(§8) The assessment of the complexes’ influence on the microbial ability to colonize an inert substratum with the establishment of the minimal biofilm eradication concentration (MBEC) was performed by the micro-titer method, following previously described protocols. The absorbance at 490 nm was measured with an Apollo LB 911ELISA (Berthold Technologies GmbH & Co. KG, Waltham, MA, USA) reader. All experiments were performed in triplicates.

In data set [7] the test system is E. coli 5 ESBL. As to the kind of experiment: MBEC assay, micro-titer method (biofilm). The class given is cell-based, Escherichia coli. As to the method: as §5, §8
For data set [8], the system named is P. aeruginosa 9027. As to the kind of experiment: MBEC assay, micro-titer method (biofilm). It is filed as cell-based, Pseudomonas aeruginosa. As to the method: as §5, §8
In data set [9] the test system is P. aeruginosa 27853. As to the kind of experiment: MBEC assay, micro-titer method (biofilm). The class given is cell-based, Pseudomonas aeruginosa. The method, then:
as §5, §8

In data set [10] the test system is P. aeruginosa 9027. As to the kind of experiment: MIC assay, liquid medium microdilution (planktonic growth). The following applies: Pseudomonas aeruginosa; P. aeruginosa 9027 (multi-drug-resistant), 24 h at 37 °C; read-out: MIC. The class given is cell-based, Pseudomonas aeruginosa. As to the method:
as §5, §6

The test system of data set [11] is P. aeruginosa 27853. The data set is described as above. It is filed as cell-based, Pseudomonas aeruginosa. The following applies: Pseudomonas aeruginosa; P. aeruginosa 27853, 24 h at 37 °C; read-out: MIC. As to the method: as §5, §6
Data set [12] relates to S. aureus 25923. The experiment in a line: MBEC assay, micro-titer method (biofilm). It is filed as cell-based, Staphylococcus aureus. The method, then:
as §5, §8

Data set [13] relates to MRSA. The experiment in a line: MBEC assay, micro-titer method (biofilm). It is filed as cell-based, Staphylococcus aureus. As to the method: as §5, §8
Data set [14] concerns S. aureus 6538. The experiment in a line: MBEC assay, micro-titer method (biofilm). The class given is cell-based, Staphylococcus aureus. As to the method: as §5, §8
Data set [15] relates to E. coli 25922. As to the kind of experiment: MIC assay, liquid medium microdilution (planktonic growth). The class given is cell-based, Escherichia coli. The following applies: Escherichia coli; E. coli 25922, 24 h at 37 °C; read-out: MIC. As to the method:
as §5, §6

Data set [16] relates to E. coli 5 ESBL. The data set is described as above. The class given is cell-based, Escherichia coli. The settings on record: Escherichia coli; E. coli 5 ESBL, 24 h at 37 °C; read-out: MIC. The method, then: as §5, §6
A further data set relates to BJ cells. The experiment in a line: Phalloidin staining and cell imaging (cytoskeleton, nucleus). The class given is cell-based, Human. The following applies: 24 h, 6 μg/mL. As to the method: as §7
In data set [17] the test system is B16 (melanoma) tumor cells. The experiment in a line: MTT cell viability assay. It is filed as cell-based, Mouse. The following applies: any tested concentration (0–25 μg/mL), 24 and 48 h. As to the method: as §1, §2, §3, §4

≈ marks a conversion by molar mass, not a printed value.

In the case of `Cc1cc(-c2ccccc2)nc2ncnn12` [pmtp, 5-phenyl-7-methyl-1,2,4-triazolo[1,5-a]pyrimidine], in data set [1], the “Effect on viability of BJ cells” value is given as “did not affect the viability of the two cell lines”. Also, the MIC (as a rule, the smallest concentration in the dilution series that meets the test's criterion for growth inhibition) with S. aureus 25923 [2] was 6000 µM (≈ 1260 µg/mL); in the data set on MRSA [3] it was 6000 µM (≈ 1260 µg/mL); in the data set on S. aureus 6538 [4], 3000 µM (≈ 631 µg/mL); in the data set with P. aeruginosa 9027 [10], 3000 µM (≈ 631 µg/mL); in the data set with P. aeruginosa 27853 [11], 3000 µM (≈ 631 µg/mL); in the data set on E. coli 25922 [15], 3000 µM (≈ 631 µg/mL). Besides, the MIC with E. coli 5 ESBL [16] came to 3000 µM (≈ 631 µg/mL). In addition, the hemolysis at 4 h, 25 µg/mL in [5] worked out at 0.61 ± 0.05%. Also, the figures for the “Cell morphology (cytoskeleton and nucleus)” value in the data set on B16 cells and in the data set on BJ cells were “does not alter the morphology of the cells” and “does not alter its morphology”, respectively. The MBEC value in the data set with E. coli 25922 [6] is 6.00 mM; in the data set with E. coli 5 ESBL [7], 3.00 mM; in the data set with P. aeruginosa 9027 [8], 1.50 mM; in the data set on P. aeruginosa 27853 [9], 3.00 mM; in the data set on S. aureus 25923 [12], 6.00 mM; with MRSA [13], 6.00 mM. This molecule also came in with an MBEC value in the data set on S. aureus 6538 [14] of 3.00 mM. Besides, the “Effect on viability of B16 cells” value in data set [17] is “did not affect the viability of the two cell lines”.
